Source: patent publication US20080248470A1, “GENETIC SCREENING FOR PREDICTING ANTIDEPRESSANT DRUG RESPONSE BASED ON THE MONOAMINE TRANSPORTER GENE POLYMORPHISM COMBINATION” (SUNGKYUNKWAN UNIVERSITY Foundation for Corporate …, priority 2007, published 2008)
“And” between values parts separate entries of the source, which are not always exact repeats. Equal entries are not always repeated. Where two headings read alike, the source gives them in different places.

Assays:
[1] = plasma drug levels by HPLC-MS/MS, trough samples at end of week 4
[2] = system: patients with major depressive episode; conditions: for change in depression score (HAM-D), FIG. 2: after 6 weeks
Protocol: In the present invention, experiments were conducted on patients other than the patient group of a prior report (reference 6). The patient subjects who participated in the experiments of the present invention were all […] and were enrolled in the Clinical Trials Program of the Samsung Medical Center Geropsychiatry and Affective Disorder Clinics (Seoul Korea). The affective disorder section of the Samsung Psychiatric Evaluation Schedule (SPES) uses the Korean version of the Structured Clinical Interview for DSM-IV Axis-I disorders (SCID-IV; 4th edition, reference 17).
In the present invention, at least one family member who is living with the patient was interviewed to supplement the patient's report of symptoms, behaviors, level of functioning, duration of episode, and recent treatments. The patient subjects who participated in the experiments of the present invention all fulfilled DSM-IV criteria for major depressive episode, the Korean version of the Structured Clinical Interview for DSM-IV Axis-I disorders (4th edition). Diagnoses were confirmed by a board certified psychiatrist on the basis of the SPES, case review notes, and other relevant data. A minimum baseline 17-item Hamilton depression scale (HAM-D) score of 15 was required.
Patient subjects, who received other psychotropic medications within 2 weeks of the study or fluoxetine within 4 weeks, were excluded. In the present invention, potential subjects were excluded for pregnancy, significant medical conditions, abnormal laboratory baseline values, unstable psychiatric features (e.g., suicidality), history of alcohol or drug dependence, seizures, head trauma with loss of consciousness, neurologic illness, or concomitant Axis I psychiatric disorder. The protocol was approved by the ethics review board of Samsung Medical Center, Seoul, Korea. Signed informed consent was obtained from all participants.
Dose titration was completed within 2 weeks.
Remission was defined as a HAM-D of less than 8 at 6 weeks (reference 19).
In the present invention, 208 patients (86% of the original participants) completed the six-week treatment trial. Sixteen patients receiving NRI treatment and 17 patients receiving SSRI treatment dropped out. […] Ten patients were excluded, either because their plasma drug concentrations were undetectable, consistent with noncompliance (N=6) or were in the range consistent with extensive drug metabolism (<200 ng/ml norfluoxetine-fluoxetine and <30 ng/ml sertraline, N=4) (reference 20). […] These 33 dropouts were excluded in data analyses.
Genomic DNA was extracted from whole blood using a Wizard Genomic Purification kit (Promega, Madison, Wis., USA). The present inventors analyzed the genotype of the 5-HTT promoter s/l polymorphism (5-HTTLPR), the genotype of the 5-HTT intron 2 s/l polymorphism, and the NET G1287A polymorphism in exon 9. For this purpose, the G1287A polymorphism in exon 9 was amplified by PCR with primers of SEQ ID NO: 1 and SEQ ID NO: 2 and digested by restriction enzyme Sau96I.

SMILES | Plasma levels (mean ±SD) ([1]; non-responders) [ng/mL] | Plasma levels (mean ±SD) ([1]; responders) [ng/mL] | Response rate ([2]; 5-HTT promoter (5-HTTLPR) ss genotype, 6 weeks, listed as NRI) | Response rate ([2]; NET A carrier + 5-HTT promoter l carrier, any intron 2 genotype) [%] | Response rate ([2]; NET A carrier + 5-HTT promoter ss, any intron 2 genotype) [%] | Response rate ([2]; NET G1287A AA genotype, 6 weeks) | Response rate ([2]; NET G1287A GA genotype, 6 weeks) | Response rate ([2]; NET G1287A GA+AA genotypes (A allele carriers), 6 weeks) [%] | Response rate ([2]; NET G1287A GA+AA genotypes (A allele carriers), 6 weeks, listed as NRI) [%] | change in depression score (HAM-D), FIG. 2 ([2]; NET G1287A GA+AA genotypes) | change in depression score (HAM-D), FIG. 2 ([2]; NET G1287A GG genotype) | Rate of remission (HAM-D of less than 8 at 6 weeks) ([2]; all patients who completed the 6-week trial) [%] | Response rate (50% or greater decrease in HAM-D score at 6 weeks) ([2]; all patients who completed the 6-week trial, listed as NRI) | expected treatment success rate when prescribed on NET G1287A examination ([2]; patient having the GG genotype) [%]
CN[C@H]1CC[C@@H](c2ccc(Cl)c(Cl)c2)c2ccccc21 [sertraline] | 72 ± 28 | 75 ± 29 | – | – | – | – | – | – | – | – | – | – | – | –
CNCCC=C1c2ccccc2CCc2ccccc21 [nortriptyline] | 123 ± 23 | 116 ± 21 | 76% and 38/50(76.0) % | 22 | 63 | 4/6(66.7) % | 16/41(39.0) % | 43 | 42.6 | 0.11 | 0.14 | 29 | 62% and 55/89 (61.8) % | 83.35
